Series [1] addresses T1, α1A adrenoceptor (prostate) (Rattus norvegicus, UniProt P43140).
T1 construct: from tissue; host or cells: isolated prostate tissue
T1 sequence (P43140 1-466): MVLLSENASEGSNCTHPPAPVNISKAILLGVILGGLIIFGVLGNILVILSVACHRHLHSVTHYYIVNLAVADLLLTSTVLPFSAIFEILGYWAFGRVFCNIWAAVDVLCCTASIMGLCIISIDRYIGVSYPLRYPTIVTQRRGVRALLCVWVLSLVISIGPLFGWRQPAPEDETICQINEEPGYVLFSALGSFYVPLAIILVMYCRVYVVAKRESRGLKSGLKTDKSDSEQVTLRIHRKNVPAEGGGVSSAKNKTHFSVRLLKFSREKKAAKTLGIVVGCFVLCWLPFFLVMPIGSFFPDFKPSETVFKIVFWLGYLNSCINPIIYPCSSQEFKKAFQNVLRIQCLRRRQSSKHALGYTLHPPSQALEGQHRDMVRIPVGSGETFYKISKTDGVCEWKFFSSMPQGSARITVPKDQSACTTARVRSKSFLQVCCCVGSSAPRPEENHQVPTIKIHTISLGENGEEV
Description: In vitro functional study, antagonism of phenylepinephrine-induced contraction of prostate. It counts as biochemical. To be noted: for Selectivity α1A/α1B / Selectivity α1A/α1D: functional assays, from pKB values; for Kb: prostate, phenylepinephrine, tested compound at 0.1, 1 and 10 mM, read-out: α Adrenoceptor Subtype (pKB) α1A (converted). From the text:
(§1) In order to study selectivity of action of these compounds towards different α-adrenoceptor subtypes, the ability of these compounds to antagonise α1-adrenoceptor agonist induced contractile response on aorta (α1Dprostate (α1A and spleen (α1B was studied. Aorta and spleen tissues were isolated from urethane anaesthetised (1.5 gm/kg) male wistar rats. Isolated tissues were mounted in organ bath containing Krebs Henseleit buffer of following composition (mM): NaCl 118; KCl 4.7; CaCl2 2.5; MgSO4. 7H2O 1.2; NaHCO3 25; KH2PO41.2; glucose 11.5. Buffer was maintained at 37° C. and aereated with a mixture of 95% O2 and 5% CO2. A resting tension of 2 g (aorta) or 1 g (spleen and prostate)was applied to tissues. Contractile response was monitored using a force displacement transducer and recorded on chart recorders. Tissues were allowed to equilibrate for 2 hours. At the end of equilibration period, concentration response curves to norepinephrine (aorta) and phenylepinephrine (spleen and prostate) were obtained in absence and presence of tested compound (at concentration of 0.1,1 and 10 mM). Antagonist affinity was calculated and expressed as pKB vales in Table II.

The next series has as its target T2, α1D adrenoceptor (aorta) (Rattus norvegicus, UniProt P23944).
T2 construct: Isolated tissues were mounted in organ bath containing Krebs Henseleit buffer; from tissue; host or cells: isolated aorta of male wistar rats
T2 sequence (P23944 1-561): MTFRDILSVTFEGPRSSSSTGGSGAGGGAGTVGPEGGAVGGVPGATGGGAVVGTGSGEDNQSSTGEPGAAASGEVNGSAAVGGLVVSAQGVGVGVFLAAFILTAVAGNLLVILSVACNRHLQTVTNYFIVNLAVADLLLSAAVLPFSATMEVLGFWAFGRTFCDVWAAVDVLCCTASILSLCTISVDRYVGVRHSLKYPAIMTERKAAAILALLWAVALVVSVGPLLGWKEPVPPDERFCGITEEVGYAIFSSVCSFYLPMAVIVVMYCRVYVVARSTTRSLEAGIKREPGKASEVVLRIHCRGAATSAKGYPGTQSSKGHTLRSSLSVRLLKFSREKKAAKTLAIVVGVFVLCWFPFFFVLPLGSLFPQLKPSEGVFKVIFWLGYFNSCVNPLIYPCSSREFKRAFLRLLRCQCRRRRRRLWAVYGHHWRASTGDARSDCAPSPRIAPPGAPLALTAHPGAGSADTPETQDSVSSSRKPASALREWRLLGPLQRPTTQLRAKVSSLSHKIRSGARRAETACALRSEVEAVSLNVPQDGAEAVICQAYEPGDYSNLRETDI
Description: In vitro functional study, antagonism of norepinephrine-induced contraction of aorta. It counts as biochemical. The conditions noted are these: tested compound at 0.1, 1 and 10 mM, read-out: α Adrenoceptor Subtype (pKB) α1D (converted).
Description: as §1

Series [2] has as its target T3, α1B adrenoceptor (spleen) (Rattus norvegicus, UniProt P15823).
T3 construct: Isolated tissues were mounted in organ bath containing Krebs Henseleit buffer; from tissue; host or cells: isolated spleen of male wistar rats
T3 sequence (P15823 1-515): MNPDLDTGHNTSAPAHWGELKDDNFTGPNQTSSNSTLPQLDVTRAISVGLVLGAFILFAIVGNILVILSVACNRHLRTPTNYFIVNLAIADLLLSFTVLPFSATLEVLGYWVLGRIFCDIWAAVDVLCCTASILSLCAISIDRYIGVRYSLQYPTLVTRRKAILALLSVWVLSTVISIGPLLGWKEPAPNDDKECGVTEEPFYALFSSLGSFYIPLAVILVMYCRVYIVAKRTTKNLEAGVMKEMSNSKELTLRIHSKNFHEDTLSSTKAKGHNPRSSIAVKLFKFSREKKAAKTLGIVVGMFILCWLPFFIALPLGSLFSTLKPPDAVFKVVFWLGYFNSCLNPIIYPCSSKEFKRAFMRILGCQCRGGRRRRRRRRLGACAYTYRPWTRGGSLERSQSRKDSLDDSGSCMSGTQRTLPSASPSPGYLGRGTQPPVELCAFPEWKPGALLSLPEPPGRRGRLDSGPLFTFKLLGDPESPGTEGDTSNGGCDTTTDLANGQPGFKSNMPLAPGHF
The series can be described thus: In vitro functional study, antagonism of phenylepinephrine-induced contraction of spleen. In kind it is biochemical. The conditions noted are these: tested compound at 0.1, 1 and 10 mM, read-out: α Adrenoceptor Subtype (pKB) α1B (converted).
Description: as §1

The target in a further series is T4, α1A adrenoceptor (Rattus norvegicus, UniProt P43140).
T4 construct: from tissue; host or cells: rat submaxillary gland membranes
T4 sequence (P43140 1-466): T1 sequence (P43140 1-466)
The series can be described thus: Receptor binding assay, displacement of [3H]prazosin, rat submaxillary membranes. The conditions noted are these: for Ki: [3H]prazosin displacement, rat submaxillary membranes, read-out: α1A (Rat submaxillary) Ki; for Selectivity α1B/α1A: ratio of Ki α1B (rat liver) / α1A (rat submaxillary). The method, boiled down:
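Rat submaxillary gland membranes (150-250 μg protein) incubated 1 h at 24-25° C in Tris HCl 50 mM, EDTA 5 mM, pH 7.4. Non-specific binding set with 300 nM prazosin; filtration then counting of bound radioactivity. IC50 and Kd from non-linear curve fitting.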
(In general: Loss of bound radioactivity is the signal in a displacement assay; it reports binding, not function.)

This is an account of results in patent US6914064B2, “1,4-Disubstituted piperazine derivatives useful as uro-selective α1-adrenoceptor blockers” (Ranbaxy Laboratories Limited, priority 2000, dated 2005).

The term Ki denotes the dissociation constant of the complex between target and ligand, obtained from inhibition or displacement. The melting point is the temperature of the solid-liquid transition. On to `CC(C)Oc1ccccc1N1CCN(CCCN2C(=O)C3CC=CCC3C2=O)CC1.Cl` (centres unmarked) [Compound 23, 2-[3-{4-(2-Isopropoxyphenyl)piperazin-1-yl}propyl]-3a,4,7,7a-tetrahydro-1H-isoindole-1,3(2H)-dione hydrochloride], for which the melting point was in the range of 223 to 224 °C. Also, in series [1], the “Selectivity α1A/α1B” value is given as 170, the “Selectivity α1A/α1D” value turned out to be 1 and the Kb was 0.115 nM. The Kb at α1D adrenoceptor (aorta) is 0.123 nM. For the same compound, the Kb in series [2] was 19.5 nM. For the same compound, on α1A adrenoceptor, the inhibition constant (Ki) was found to be 0.16 nM and the “Selectivity α1B/α1A” value was determined as 175.
On to `CCCOc1ccccc1N1CCN(CCCN2C(=O)C3CC=CCC3C2=O)CC1.Cl` (centres unmarked) [Compound 24, 2-[3-{4-(2-Propoxyphenyl)piperazin-1-yl}propyl]-3a,4,7,7a-tetrahydro-1H-isoindole-1,3(2H)-dione hydrochloride], for which the melting point was in the range of 193 to 194 °C. Also, in series [1], the “Selectivity α1A/α1B” value was 355, the “Selectivity α1A/α1D” value turned out to be 13 and the Kb was 0.0398 nM. In addition, the Kb at α1D adrenoceptor (aorta) is 0.537 nM. Moreover, in series [2], the Kb is 14.1 nM. Also, on α1A adrenoceptor, the Ki is 0.24 nM and the “Selectivity α1B/α1A” value was found to be 117.
`COc1ccccc1N1CCN(CCCN2C(=O)C3CC=CCC3C2=O)CC1.Cl` (centres unmarked) [Compound 01, 2-[3-{4-(2-Methoxyphenyl)piperazin-1-yl}propyl]-3a,4,7,7a-tetrahydro-1H-isoindole-1,3(2H)-dione hydrochloride] yielded a melting point of 184 to 185 °C. In addition, in series [1], the “Selectivity α1A/α1B” value turned out to be 41, the “Selectivity α1A/α1D” value stood at 4 and the Kb was 0.537 nM. Also, on α1D adrenoceptor (aorta), the Kb is 2.29 nM. Moreover, the Kb in series [2] is 21.9 nM. In addition, on α1A adrenoceptor, the Ki was 0.8 nM and the “Selectivity α1B/α1A” value turned out to be 91.
The compound `CCOc1ccccc1N1CCN(CCCN2C(=O)C3CC=CCC3C2=O)CC1.Cl` (centres unmarked) [Compound 11, 2-[3-{4-(2-Ethoxyphenyl)piperazin-1-yl}propyl]-3a,4,7,7a-tetrahydro-1H-isoindole-1,3(2H)-dione hydrochloride] came in with a melting point of 221.9 to 222.7 °C. Further, in series [1], the “Selectivity α1A/α1B” value was 47, the “Selectivity α1A/α1D” value was 15 and the Kb is 0.112 nM. Besides, the Kb on α1D adrenoceptor (aorta) was 1.74 nM. The Kb in series [2] is 5.25 nM. Further, on α1A adrenoceptor, the Ki is 0.13 nM and the “Selectivity α1B/α1A” value was determined as 146.
